The record followed here is patent US5654427A, “Indolocarbazole derivatives to treat a pathological condition of the prostate” (Kyowa Hakko Kogyo Co., Ltd., priority 1995, dated 1997).

Each structure is given as a SMILES string.

The assay deals with T1, trkA (Rattus norvegicus, UniProt P35739).
T1 construct: are rat pheochromocytoma cells that bear trkA; host or cells: PC12 rat pheochromocytoma cells
The assay can be described thus: inhibition of NGF-stimulated trk autophosphorylation (tyrosine phosphorylation) in PC12 cells, anti-phosphotyrosine Western blot. As to trk 100 nM (inhibition of phosphorylation): key: +: Inhibited phosphorylation; -: Did not inhibit phosphorylation. As to trk 500 nM (inhibition of phosphorylation): key: +: Inhibited phosphorylation; -: Did not inhibit phosphorylation. The class given is cell-based. The settings on record: for trk 100 nM (inhibition of phosphorylation) / trk 500 nM (inhibition of phosphorylation): NGF 50 ng/ml; for trk 500 nM (inhibition of phosphorylation): 500 nM compound. The method, then: Candidate compounds for the inhibition of prostate cell proliferation were selected according to their ability to inhibit the tyrosine kinase activity associated with the trks.
PC12 cells (ATCC #CRL1721) are rat pheochromocytoma cells that bear trkA and differentiate into sympathetic neurons when treated with NGF. […] Cells were incubated at 37° C. in a humidified atmosphere of 10% CO2 and 90% air. […] The cells in each culture were disrupted and cell lysates were prepared by standard techniques known to those skilled in the art. Each lysate was incubated with anti-trk antibody whereby immune complexes were formed. […] The immune complexes were collected on Protein A-Sepharose beads, separated by SDS-polyacrylamide gel electrophoresis (SDS-PAGE), and transferred to polyvinylidene difluoride (PVDF) membranes (Millipore Corp., Bedford, Mass.), using techniques well known to those skilled in the art. The membranes were incubated with anti-phosphotyrosine antibody, which binds to the tyrosine phosphorylated trks, but not to the un-phosphorylated form of trks. Proteins bound to anti-phosphotyrosine antibody were visualized with enhanced chemiluminescence (ECL, Amersham), and are shown as dark "spots" in FIG. 1.
Measurement of the autophosphorylation of trk provides a good index of trk tyrosine kinase activity, and thereby of trk stimulation.
Inhibition was indicated by the absence of a spot migrating with the trk marker shown at the left side of the figure. Partial inhibition was indicated by a spot of reduced size.

T1 sequence (P35739 33-799): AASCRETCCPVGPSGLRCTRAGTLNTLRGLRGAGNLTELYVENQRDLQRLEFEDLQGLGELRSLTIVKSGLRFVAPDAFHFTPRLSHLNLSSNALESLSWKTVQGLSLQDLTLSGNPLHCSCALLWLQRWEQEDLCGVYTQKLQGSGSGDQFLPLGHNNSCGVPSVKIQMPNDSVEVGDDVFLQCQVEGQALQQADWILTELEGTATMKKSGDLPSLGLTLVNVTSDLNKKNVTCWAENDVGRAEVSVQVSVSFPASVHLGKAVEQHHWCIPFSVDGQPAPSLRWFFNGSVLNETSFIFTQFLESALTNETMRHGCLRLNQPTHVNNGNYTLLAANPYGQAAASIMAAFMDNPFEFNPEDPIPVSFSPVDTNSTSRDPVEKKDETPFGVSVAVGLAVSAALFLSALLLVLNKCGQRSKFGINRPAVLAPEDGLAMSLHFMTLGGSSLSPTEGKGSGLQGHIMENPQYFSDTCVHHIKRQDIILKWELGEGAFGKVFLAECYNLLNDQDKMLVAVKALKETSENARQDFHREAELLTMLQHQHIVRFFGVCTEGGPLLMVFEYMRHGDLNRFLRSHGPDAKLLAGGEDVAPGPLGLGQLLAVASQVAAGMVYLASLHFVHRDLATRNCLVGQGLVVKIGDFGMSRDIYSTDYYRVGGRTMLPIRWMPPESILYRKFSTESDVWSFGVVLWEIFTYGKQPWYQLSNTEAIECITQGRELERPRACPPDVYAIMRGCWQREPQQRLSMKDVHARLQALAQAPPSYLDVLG

Turning to `COC(=O)CC1(O)CC2OC1(C)n1c3ccccc3c3c4c(c5c6ccccc6n2c5c31)C(=O)NC4` (centres unmarked) [Compound I-31], the “trk 100 nM (inhibition of phosphorylation)” value (100 nM compound) is “+”.

`CC12OC(CC1(O)CNC(=O)CN)n1c3ccccc3c3c4c(c5c6ccccc6n2c5c31)CNC4=O` (centres unmarked) [Compound I-32]: under “100 nM compound”, the “trk 100 nM (inhibition of phosphorylation)” value is “+”.

As for `CC12OC(CC1(O)C(=O)Nc1ccccc1)n1c3ccccc3c3c4c(c5c6ccccc6n2c5c31)CNC4=O` (centres unmarked) [Compound I-33], the “trk 500 nM (inhibition of phosphorylation)” value is given as “+”. In addition, the “trk 100 nM (inhibition of phosphorylation)” value (100 nM compound) was “-”.

Regarding `CCNC(=O)Nc1ccc2c(c1)c1c3c(c4c5ccccc5n5c4c1n2C1CC(O)(C(=O)OC)C5(C)O1)CNC3=O` (centres unmarked) [Compound I-34], the “trk 500 nM (inhibition of phosphorylation)” value is recorded as “+”. The “trk 100 nM (inhibition of phosphorylation)” value (100 nM compound) was “-”.

Consider `CCNC(=O)OCc1ccc2c(c1)c1c3c(c4c5ccccc5n5c4c1n2C1CC(O)(C(=O)OC)C5(C)O1)CNC3=O` (centres unmarked) [Compound I-35], for which the “trk 500 nM (inhibition of phosphorylation)” value is given as “+”. The “trk 100 nM (inhibition of phosphorylation)” value (100 nM compound) is recorded as “+”.

As to `CC12OC(CC1(O)CO)n1c3ccc(Br)cc3c3c4c(c5c6ccccc6n2c5c31)CNC4=O` (centres unmarked) [Compound I-36], the “trk 100 nM (inhibition of phosphorylation)” value (100 nM compound) was “+”.

Take `COC(=O)Nc1ccc2c(c1)c1c3c(c4c5ccccc5n5c4c1n2C1CC(O)(C(=O)OC)C5(C)O1)CNC3=O` (centres unmarked) [Compound I-37]: the “trk 100 nM (inhibition of phosphorylation)” value (100 nM compound) is reported as “+”.

Regarding `COC(=O)C1(O)CC2OC1(C)n1c3ccccc3c3c4c(c5c6cc(C)ccc6n2c5c31)C(=O)NC4` (centres unmarked) [Compound I-38], the “trk 100 nM (inhibition of phosphorylation)” value (100 nM compound) was “+”.

As to `COC(=O)C1(O)CC2OC1(C)n1c3ccc(Br)cc3c3c4c(c5c6cc(Br)ccc6n2c5c31)C(=O)NC4` (centres unmarked) [Compound I-39], the “trk 100 nM (inhibition of phosphorylation)” value (100 nM compound) is “+”. In addition, the “phosphorylation response (FIG. 1, spot)” value (100 nM compound, NGF, Western blot FIG. 1) is “somewhat diminished (a smaller spot was seen)”.

Turning to `CC12OC(CC1(O)C[S+]([O-])c1ccccn1)n1c3ccccc3c3c4c(c5c6ccccc6n2c5c31)CNC4=O` (centres unmarked) [Compound I-40], where the note is “100 nM compound”, the “trk 100 nM (inhibition of phosphorylation)” value is “+”.

As to `CCOCc1ccc2c(c1)c1c3c(c4c5ccccc5n5c4c1n2C1CC(O)(C(=O)OC)C5(C)O1)CNC3=O` (centres unmarked) [Compound I-41], the “trk 500 nM (inhibition of phosphorylation)” value is given as “+”. In addition, for the setting “100 nM compound”, the “trk 100 nM (inhibition of phosphorylation)” value is on record as “+”.

`CC12OC(CC1(O)C(=O)NCCO)n1c3ccc(Br)cc3c3c4c(c5c6cc(Br)ccc6n2c5c31)CNC4=O` (centres unmarked) [Compound I-43]: the “trk 500 nM (inhibition of phosphorylation)” value is given as “+”. Also, the “trk 100 nM (inhibition of phosphorylation)” value (100 nM compound) is “-”.

`COC(=O)C1(O)CC2OC1(C)n1c3ccc(Cl)cc3c3c4c(c5c6cc(Cl)ccc6n2c5c31)C(=O)NC4` (centres unmarked) [Compound I-44]: the “trk 500 nM (inhibition of phosphorylation)” value is recorded as “+”. For the same compound, the “trk 100 nM (inhibition of phosphorylation)” value (100 nM compound) is on record as “-”.

Turning to `CC12OC(CC1=O)n1c3ccccc3c3c4c(c5c6ccccc6n2c5c31)CNC4=O` (centres unmarked) [Compound I-52], the “trk 100 nM (inhibition of phosphorylation)” value (100 nM compound) is “+”.

Consider `COC(=O)C1(OC)CC2OC1(C)n1c3ccccc3c3c4c(c5c6ccccc6n2c5c31)C(=O)NC4` (centres unmarked) [Compound I-53], for which the “trk 100 nM (inhibition of phosphorylation)” value (100 nM compound) is “+”.

`CNC(=O)C1(O)CC2OC1(C)n1c3ccccc3c3c4c(c5c6ccccc6n2c5c31)C(=O)NC4` (centres unmarked) [Compound I-54]: the “trk 100 nM (inhibition of phosphorylation)” value (100 nM compound) was “+”.

On to `CC(=O)OC1(C(=O)NCC(C)C)CC2OC1(C)n1c3ccccc3c3c4c(c5c6ccccc6n2c5c31)C(=O)NC4` (centres unmarked) [Compound I-55], for which the “trk 100 nM (inhibition of phosphorylation)” value (100 nM compound) was “+”.

With `CSCC1(O)CC2OC1(C)n1c3ccccc3c3c4c(c5c6ccccc6n2c5c31)C(=O)NC4` (centres unmarked) [Compound I-56], the “trk 500 nM (inhibition of phosphorylation)” value is listed as “+”.

For `CC12OC(CC1(O)CNC(=O)[C@@H](N)CCCCN)n1c3ccccc3c3c4c(c5c6ccccc6n2c5c31)CNC4=O` (some centres unmarked) [Compound I-57], under “100 nM compound”, the “trk 100 nM (inhibition of phosphorylation)” value is on record as “+”.

For the compound `COC(=O)C1(O)CC2OC1(C)n1c3ccccc3c3c4c(c5c6cc(C(Sc7ccccc7)Sc7ccccc7)ccc6n2c5c31)C(=O)NC4` (centres unmarked) [Compound I-58], the “trk 500 nM (inhibition of phosphorylation)” value is “+”. In addition, under “100 nM compound”, the “trk 100 nM (inhibition of phosphorylation)” value is given as “-”.

Consider `COC(=O)C1(O)CC2OC1(C)n1c3ccccc3c3c4c(c5c6cc(C7SCCS7)ccc6n2c5c31)C(=O)NC4` (centres unmarked) [Compound I-59], for which the “trk 500 nM (inhibition of phosphorylation)” value is reported as “+”. Moreover, the “trk 100 nM (inhibition of phosphorylation)” value (100 nM compound) is given as “-”.

With `COC(=O)C1(O)CC2OC1(C)n1c3ccccc3c3c4c(c5c6cc(CSc7ccccn7)ccc6n2c5c31)C(=O)NC4` (centres unmarked) [Compound I-60], the “trk 500 nM (inhibition of phosphorylation)” value is “+”. Moreover, under “100 nM compound”, the “trk 100 nM (inhibition of phosphorylation)” value was “-”.

Regarding `COC(=O)C1(O)CC2OC1(C)n1c3ccccc3c3c4c(c5c6cc(C=NNC7=NCCN7)ccc6n2c5c31)C(=O)NC4` (centres unmarked) [Compound I-61], the “trk 500 nM (inhibition of phosphorylation)” value is reported as “+”. For the same compound, for the setting “100 nM compound”, the “trk 100 nM (inhibition of phosphorylation)” value is given as “-”.

For the compound `COC(=O)C1(O)CC2OC1(C)n1c3ccccc3c3c4c(c5c6cc(CSc7ncccn7)ccc6n2c5c31)C(=O)NC4` (centres unmarked) [Compound I-62], the “trk 500 nM (inhibition of phosphorylation)” value is given as “+”. The “trk 100 nM (inhibition of phosphorylation)” value (100 nM compound) is reported as “+”.

As for `COC(=O)C1(O)CC2OC1(C)n1c3ccccc3c3c4c(c5c6cc(C[S+]([O-])c7ncccn7)ccc6n2c5c31)C(=O)NC4` (centres unmarked) [Compound I-63], the “trk 500 nM (inhibition of phosphorylation)” value is listed as “+”. Moreover, where the note is “100 nM compound”, the “trk 100 nM (inhibition of phosphorylation)” value is recorded as “-”.

As for `COC(=O)C1(O)CC2OC1(C)n1c3ccccc3c3c4c(c5c6cc(C[S+]([O-])c7ccccn7)ccc6n2c5c31)C(=O)NC4` (centres unmarked) [Compound I-64], the “trk 500 nM (inhibition of phosphorylation)” value was “+”. Moreover, the “trk 100 nM (inhibition of phosphorylation)” value (100 nM compound) was “-”.

Consider `CCSCc1ccc2c(c1)c1c3c(c4c5cc(CO)ccc5n5c4c1n2C1CC(O)(C(=O)OC)C5(C)O1)CNC3=O` (centres unmarked) [Compound I-65], for which the “trk 500 nM (inhibition of phosphorylation)” value is recorded as “+”. Moreover, the “trk 100 nM (inhibition of phosphorylation)” value (100 nM compound) is given as “-”.

Turning to `CC[S+]([O-])Cc1ccc2c(c1)c1c3c(c4c5cc(C[S+]([O-])CC)ccc5n5c4c1n2C1CC(O)(C(=O)OC)C5(C)O1)CNC3=O` (centres unmarked) [Compound I-66], the “trk 500 nM (inhibition of phosphorylation)” value is “+”. Besides, where the note is “100 nM compound”, the “trk 100 nM (inhibition of phosphorylation)” value is “-”.

In the case of `COC(=O)C1(O)CC2OC1(C)n1c3ccccc3c3c4c(c5c6cc(CSc7nc8ccccc8[nH]7)ccc6n2c5c31)C(=O)NC4` (centres unmarked) [Compound I-67], the “trk 500 nM (inhibition of phosphorylation)” value is reported as “+”. The “trk 100 nM (inhibition of phosphorylation)” value (100 nM compound) was “+”.

As to `COC(=O)C1(O)CC2OC1(C)n1c3ccccc3c3c4c(c5c6cc(CSCc7ccco7)ccc6n2c5c31)C(=O)NC4` (centres unmarked) [Compound I-68], the “trk 500 nM (inhibition of phosphorylation)” value is on record as “+”. Moreover, the “trk 100 nM (inhibition of phosphorylation)” value (100 nM compound) was “-”.

In the case of `COC(=O)C1(O)CC2OC1(C)n1c3ccccc3c3c4c(c5c6cc(C=NN7CCCC7)ccc6n2c5c31)C(=O)NC4` (centres unmarked) [Compound I-69], the “trk 500 nM (inhibition of phosphorylation)” value is listed as “+”. The “trk 100 nM (inhibition of phosphorylation)” value (100 nM compound) is “+”.

Turning to `COC(=O)C1(O)CC2OC1(C)n1c3ccccc3c3c4c(c5c6cc(C=NNc7ccccn7)ccc6n2c5c31)C(=O)NC4` (centres unmarked) [Compound I-70], the “trk 500 nM (inhibition of phosphorylation)” value is “+”. Further, the “trk 100 nM (inhibition of phosphorylation)” value (100 nM compound) was “+”.

In the case of `COC(=O)C1(O)CC2OC1(C)n1c3ccccc3c3c4c(c5c6cc(CSCCN(C)C)ccc6n2c5c31)C(=O)NC4` (centres unmarked) [Compound I-71], the “trk 500 nM (inhibition of phosphorylation)” value was “+”. Besides, the “trk 100 nM (inhibition of phosphorylation)” value (100 nM compound) is on record as “-”.

In the case of `COC(=O)C1(O)CC2OC1(C)n1c3ccccc3c3c4c(c5c6cc(CSc7nc[nH]n7)ccc6n2c5c31)C(=O)NC4` (centres unmarked) [Compound I-72], the “trk 500 nM (inhibition of phosphorylation)” value was “+”. Further, the “trk 100 nM (inhibition of phosphorylation)” value (100 nM compound) is reported as “-”.

With `COC(=O)C1(O)CC2OC1(C)n1c3ccccc3c3c4c(c5c6cc(C=NNC(=N)N)ccc6n2c5c31)C(=O)NC4` (centres unmarked) [Compound I-73], the “trk 500 nM (inhibition of phosphorylation)” value is “+”. Where the note is “100 nM compound”, the “trk 100 nM (inhibition of phosphorylation)” value is “+”.

As for `COC(=O)C1(O)CC2OC1(C)n1c3ccccc3c3c4c(c5c6cc(C=NN7CCOCC7)ccc6n2c5c31)C(=O)NC4` (centres unmarked) [Compound I-74], the “trk 500 nM (inhibition of phosphorylation)” value is given as “+”. For the setting “100 nM compound”, the “trk 100 nM (inhibition of phosphorylation)” value was “+”.

Regarding `COC(=O)C1(O)CC2OC1(C)n1c3ccccc3c3c4c(c5c6cc(C=NN(C)C)ccc6n2c5c31)C(=O)NC4` (centres unmarked) [Compound I-75], the “trk 500 nM (inhibition of phosphorylation)” value is listed as “+”.

Regarding `COC(=O)C1(O)CC2OC1(C)n1c3ccccc3c3c4c(c5c6cc(C=NN7CCN(C)CC7)ccc6n2c5c31)C(=O)NC4` (centres unmarked) [Compound I-76], the “trk 500 nM (inhibition of phosphorylation)” value is on record as “+”.

Take `C=CCn1c2ccccc2c2c3c(c4c5ccccc5n(CC=C)c4c21)C(=O)NC3` [II-1]: the “trk 500 nM (inhibition of phosphorylation)” value is “+”. In addition, the “trk 100 nM (inhibition of phosphorylation)” value (100 nM compound) is “-”.

Regarding `O=C1NCc2c1c1c3ccccc3n(CCCO)c1c1c2c2ccccc2n1CCCO` [II-4], the “trk 500 nM (inhibition of phosphorylation)” value was “+”.
